These results are taken from ChEMBL document CHEMBL5154802, “Leveraging Structure-Based Drug Design to Identify Next-Generation MAT2A Inhibitors, Including Brain-Penetrant and Peripherally Efficacious Leads” (J Med Chem, 2022).

Data set [1] deals with T1, S-adenosylmethionine synthase isoform type-2 (Homo sapiens, UniProt P31153). Put plainly: Inhibition of […] in MTAP-null human HCT-116 cells after 72 hrs by LC-MS/MS analysis. The data set is classed as cell-based, HCT116-MTAP null.
Target sequence in this assay (P31153 whole entry, canonical isoform): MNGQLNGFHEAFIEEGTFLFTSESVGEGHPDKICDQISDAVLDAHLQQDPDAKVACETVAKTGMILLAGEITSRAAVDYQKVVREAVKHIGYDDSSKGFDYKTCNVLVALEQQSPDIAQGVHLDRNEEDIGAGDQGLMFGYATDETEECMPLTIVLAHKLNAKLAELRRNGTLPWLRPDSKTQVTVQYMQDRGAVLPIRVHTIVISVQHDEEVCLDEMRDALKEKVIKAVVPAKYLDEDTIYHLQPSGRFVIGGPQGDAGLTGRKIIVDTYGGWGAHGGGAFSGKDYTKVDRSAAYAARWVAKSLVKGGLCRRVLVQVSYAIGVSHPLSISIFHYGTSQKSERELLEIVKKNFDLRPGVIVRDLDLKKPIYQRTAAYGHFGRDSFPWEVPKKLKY
Data set [2] has as its target T1, S-adenosylmethionine synthase isoform type-2. Put plainly: Inhibition of […] in MTAP-null human HCT-116 cells after 72 hrs by LC-MS/MS analysis relative to control. It is filed as cell-based. The conditions noted are these: HCT116-MTAP null.
Target sequence in this assay (P31153 whole entry, looked up, canonical isoform): as the sequence (P31153 whole entry, canonical isoform) above
The next data set relates to HCT116-MTAP null. The experiment in a line: Antitumor activity against human HCT116-MTAP null cells xenografted in nu/nu mouse assessed as inhibition of tumor […] at 10 to 30 mg/kg, po QD for 21 days. To be noted: dose 10-30 mg/kg, time 21.0 day. It is filed as functional, organism-based. (In general: Xenograft models place foreign cells or tissue in a host animal.)

A short description of data set [3]: Inhibition of MAT2A in human HCT116-MTAP null cells xenografted po dosed nu/nu mouse model assessed as plasma exposure required for reduction in periphery SAM level. It is filed as functional.
A short description of data set [4]: In vivo inhibition of MAT2A in human HCT116-MTAP null cells xenografted po dosed nu/nu mouse model assessed as plasma exposure required for reduction in tumor SAM level. It is filed as functional.
In data set [5] the target is T1, S-adenosylmethionine synthase isoform type-2. The experiment in a line: Inhibition of recombinant human MAT2A expressed in baculovirus infected Sf9 cells assessed as S-adenosyl methionine production using L-methionine as substrate preincubated for 60 mins followed by substrate addition and measured after 60 mins in presence of ATP.
Target sequence in this assay (P31153 whole entry, canonical isoform): as above
The target is the same in data set [6]. Put plainly: Inhibition of recombinant human MAT2A expressed in baculovirus infected Sf9 cells assessed as S-adenosyl methionine production using L-methionine as substrate preincubated for 60 mins followed by substrate addition and measured after 60 mins in presence of ATP relative to control.
Target sequence in this assay (P31153 whole entry, looked up, canonical isoform): as the sequence (P31153 whole entry, canonical isoform) above
Another data set addresses T2, PXR (NR1I2) (Homo sapiens, UniProt O75469).
T2 sequence (O75469 whole entry): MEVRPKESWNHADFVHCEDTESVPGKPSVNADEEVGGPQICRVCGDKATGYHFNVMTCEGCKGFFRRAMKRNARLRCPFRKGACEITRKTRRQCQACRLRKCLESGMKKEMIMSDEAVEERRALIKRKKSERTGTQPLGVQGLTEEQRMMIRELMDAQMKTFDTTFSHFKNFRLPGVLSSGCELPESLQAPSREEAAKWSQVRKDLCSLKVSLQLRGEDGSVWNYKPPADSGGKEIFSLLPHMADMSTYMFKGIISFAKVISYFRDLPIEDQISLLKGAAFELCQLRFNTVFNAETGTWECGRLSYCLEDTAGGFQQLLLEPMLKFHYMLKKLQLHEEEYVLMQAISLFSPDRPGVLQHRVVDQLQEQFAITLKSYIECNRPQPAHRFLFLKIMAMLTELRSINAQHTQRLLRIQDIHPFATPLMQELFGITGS
Put plainly: Transactivation of human PXR transfected in HepG2 cells assessed as CYP450 induction by measuring fold activation at 10 uM by luciferase reporter gene assay. The data set is classed as ADME, cell-based. The conditions noted are these: HepG2 cells transfected with human PXR, read-out: FC. On the technique in general: Reporter assays use an easily measured gene product as a stand-in for the process of interest.

The next data set deals with KP-4. The experiment in a line: Antitumor activity against human KP-4 cells xenografted in CB17-SCID mouse assessed as tumor growth inhibition […] at 30 to 60 mg/kg, po QD for 13 days. The conditions noted are these: dose 30-60 mg/kg, time 13.0 day. It is filed as functional, organism-based.
A short description of data set [7]: Ratio of drug concentration in brain to plasma of mouse at 10 mg/kg, po measured at 1 to 4 hrs post dose. The data set is classed as ADME, organism-based. The conditions noted are these: brain and plasma, time 1-4 hrs.

pIC50: −log10 of the molar value. Calls of active or inactive are those of the source. No cut-off for these calls is given here.

The term pIC50 denotes the IC50 on a negative log10 scale, so that one unit is a factor of ten. What is called Kp is tissue or fluid exposure divided by exposure in the circulation.

Regarding `Cc1nc2ccc(-n3cc4cnc(NCC(F)(F)F)nc4c(-c4ccc(Cl)cc4)c3=O)cc2n1C`, the pIC50 in [1] is 7.68. In data set [2], this compound came in with an Imax of 80%.

In the case of `Cn1cc2cc(-n3cc4cnc(NCC(F)(F)F)nc4c(-c4ccc(Cl)cc4)c3=O)ccc2n1`, the pIC50 in [1] was 7.85. The result in the data set with HCT116-MTAP null was Active. Further, the fIC50 in data set [3] is 2 nM; in data set [4], 1.8 nM. The compound also showed an Imax in data set [2] of 80%.

For `COc1ccc(N2Cc3cnc(NCC4CC4)nc3C3(CCN(Cc4cc[nH]c4)C3)C2=O)cc1` (configuration not stated), in data set [5], the pIC50 was 5.70. Besides, the Imax in data set [6] turned out to be 34%.

With `Cn1cc2cc(-n3cc4ccc(NCC(F)(F)F)nc4c(-c4ccc(Cl)cc4)c3=O)ccc2n1`, the pIC50 in data set [1] is 7.96. Further, the Imax in [2] was 82%.

As to `CCCNc1ncc2cn(-c3ccc(OC)cc3)c(=O)c(-c3ccc(Br)cc3)c2n1`, the pIC50 in data set [5] is 7.32. Moreover, in data set [6], the Imax turned out to be 73%.

For the compound `COc1ccc(-n2cc3cnc(NCCC(F)(F)F)nc3c(-c3ccc(Br)cc3)c2=O)cc1`, in [5], the pIC50 is 6.49. Besides, the Imax in data set [6] is 69%.

In turn, `Cn1cc2cc(-n3cc4ccc(OCC(F)(F)F)nc4c(-c4ccc(Cl)cc4)c3=O)ccc2n1` had a pIC50 in data set [1] of 7.49. The compound also showed an Imax in [2] of 82%.

On to `Cn1cc2cc(-n3cc4ccc(OCC(F)F)nc4c(-c4ccc(Cl)cc4)c3=O)ccc2n1`, for which the pIC50 in data set [1] was 7.89. Further, in [2], the Imax was 88%. Further, the fold induction at 10 µM at PXR (NR1I2) turned out to be 3.8.

Turning to `CCNc1ncc2cn(-c3ccc(OC)cc3)c(=O)c(-c3ccc(Br)cc3)c2n1`, the pIC50 in data set [5] was 7.47. For the same compound, the Imax in data set [6] turned out to be 91%.

Turning to `COc1ccc(-n2cc3cnc(NCC(F)(F)F)nc3c(-c3ccc(Cl)cc3)c2=O)cc1`, the pIC50 in data set [1] was 6.95. Besides, the Imax in [2] was found to be 83%.

`COc1ccc(N2Cc3cnc(NCC4CC4)nc3C3(CCN(Cc4ccccc4F)C3)C2=O)cc1` (configuration not stated): the pIC50 in data set [5] was 6.49. Also, the Imax in data set [6] amounted to 38%.

In the case of `COc1ccc(N2Cc3cnc(NCC4CC4)nc3C3(CCN(Cc4cnc(N)s4)C3)C2=O)cc1` (configuration not stated), the pIC50 in [5] is 6.39. For the same compound, the Imax in [6] was determined as 38%.

In the case of `COc1ccc(N2Cc3cnc(NCC4CC4)nc3C3(CCN(Cc4ccon4)C3)C2=O)cc1` (configuration not stated), the negative-log IC50 (pIC50) in [5] is 6.28. Further, the Imax in data set [6] was found to be 50%.

For `COc1ccc(-n2cc3cnc(NCC(F)(F)F)nc3c(-c3ccc(Br)cc3)c2=O)cc1`, the pIC50 in data set [1] was 7.47; in data set [5], 7.66. The Imax in data set [2] amounted to 84%; in [6], 94%. For the same compound, the fIC50 in data set [4] was determined as 10.2 nM. The result in the data set on KP-4 was Active.

In data set [1], `Cn1cc2cc(-n3cc4ccc(CCC(F)(F)F)nc4c(-c4ccc(Cl)cc4)c3=O)ccc2n1` gave a pIC50 of 7.00. Besides, the Imax in data set [2] worked out at 76%.

Take `COc1ccc(N2Cc3cnc(NCC4CC4)nc3C3(CCN(Cc4cc[nH]n4)C3)C2=O)cc1` (configuration not stated): the pIC50 in data set [5] was 6.16. Also, the Imax in data set [6] stood at 88%.

As for `Cc1nc(NCC2CC2)nc2c1COCC21CCN(Cc2ccccc2F)C1` (configuration not stated), the pIC50 in [5] was 5.14. In addition, the Imax in data set [6] was determined as 46%.

For the compound `O=c1c(-c2ccc(Br)cc2)c2nc(NCC(F)(F)F)ncc2cn1-c1ccc2ncccc2c1`, in data set [1], the pIC50 is 7.34. Moreover, the Kp in data set [7] was determined as 0.1. Besides, the Imax in data set [2] came out at 84%. For the same compound, at PXR (NR1I2), the fold induction at 10 µM is 5.3.

As to `COc1ccc(N2Cc3c(C)nc(NCC4CC4)nc3C3(CCN(Cc4ccccc4F)C3)C2=O)cc1` (configuration not stated), in data set [5], the pIC50 is 6.60. In addition, the Imax in data set [6] is 50%.

For the compound `CCOc1ccc2cn(-c3ccc4nn(C)cc4c3)c(=O)c(-c3ccc(Cl)cc3)c2n1`, the pIC50 in data set [1] is 7.64. The Imax in [2] stood at 89%. In addition, the fIC50 in data set [4] was determined as 9.8 nM.

As to `COc1ccc(N2Cc3cnc(NCC4CC4)nc3C3(CCN(Cc4ccsc4)C3)C2=O)cc1` (configuration not stated), the negative-log IC50 (pIC50) in data set [5] was 6.29. In addition, in [6], the Imax amounted to 38%.

Turning to `COc1ccc(-n2cc3cnc(NCC4CC4)nc3c(-c3ccc(Br)cc3)c2=O)cc1`, the pIC50 in data set [5] is 7.27. In data set [6], the Imax came out at 88%.

As to `COc1ccc(N2Cc3cnc(NCC4CC4)nc3C3(CCN(Cc4cscn4)C3)C2=O)cc1` (configuration not stated), the pIC50 in data set [5] was 6.21. Moreover, the Imax in data set [6] is 62%.

Consider `CCNc1ccc2cn(-c3ccc4nn(C)cc4c3)c(=O)c(-c3ccc(Cl)cc3)c2n1`, for which the pIC50 in data set [1] is 8.00. For the same compound, the Imax in [2] is 81%.

As for `COc1ccc(-n2cc3cnc(N(C)CC(F)(F)F)nc3c(-c3ccc(Br)cc3)c2=O)cc1`, in data set [5], the pIC50 is 5.48. In [6], the Imax was 71%.

Consider `COc1ccc(N2Cc3cnc(NCC4CC4)nc3C3(CCN(Cc4cn[nH]c4)C3)C2=O)cc1` (configuration not stated), for which, in data set [5], the pIC50 was 5.11. Moreover, in data set [6], the Imax worked out at 60%.

Compound `O=c1c(-c2ccc(Cl)cc2)c2nc(NCC(F)(F)F)ncc2cn1-c1ccc2ncccc2c1` had a pIC50 in [1] of 7.10. The compound further showed an Imax in [2] of 83%.

Regarding `Cn1cnc2ccc(-n3cc4cnc(NCC(F)(F)F)nc4c(-c4ccc(Cl)cc4)c3=O)cc21`, the pIC50 in data set [1] was 7.51. In [2], the Imax is 80%.
